From patent US20210005278A1, “SYSTEMS AND METHODS FOR PREDICTIVE NETWORK MODELING FOR COMPUTATIONAL SYSTEMS, BIOLOGY AND DRUG TARGET DISCOVERY” (ARIZONA BOARD OF REGENTS ON BEHALF OF THE UNIVERSITY OF …, priority 2018, published 2021)
“Also recorded” adds a separate entry of the source.

How the values were obtained:
human SKMCs (HMCL-7304) = assay: Growth assay in human SKMCs (crystal violet); type: cell-based; conditions: 12 to 14 days, 10 nM-10 uM
Method: (§1) After the treatment, the cells were fixed in cold methanol for 15 minutes and stained with crystal violet for 10 minutes. Dye excess was washed with water and pictures taken immediately afterwards.

human SGBS preadipocytes = assay: Growth assay in human SGBS preadipocytes (crystal violet); type: cell-based; conditions: 12 to 14 days, 10 nM-10 uM
Method: as §1

SGBS cells = assay: Adipogenic differentiation assay (Oil Red O) in SGBS cells; type: cell-based, human; conditions: inhibitor added at day 0 of differentiation, 10 nM-10 uM
Method: For adipogenic differentiation SGBS cells were grown to confluence and subjected to a two-step differentiation process. […] Afterwards, cells were exposed to DMEM/F12 supplemented with 0.01 mg/mL of transferrin, […] of insulin, 100 nM cortisol, and 0.2 nM 3,3′,5-Triiodo-L-thyronine for additional 12 days. HMCL-7304 cells were differentiated in presence of SKMC differentiation medium (PromoCell) for 4-5 days before glucose uptake was performed. […] Differentiation quantification was performed with Oil Red 0. Differentiated SGBS cells were fixed with 10% formalin for 10 minutes at room temperature. After washing with 60% isopropanol, samples were incubated in Oil Red 0 (Sigma-Aldrich) for 10 minutes at room temperature. Oil Red 0 was eluted with 100% isopropanol for 10 minutes. The solution was then transferred into a 96-well plate and absorbance measured at 500nm.

[1] = tested on: human adipocytes (differentiated SGBS cells); assay: Insulin mediated glucose uptake assay in mature human adipocytes (differentiated SGBS); type: cell-based; conditions: 24 hours pretreatment 10 nM-10 uM, 100 nM insulin stimulation
Method: For adipogenic differentiation SGBS cells were grown to confluence and subjected to a two-step differentiation process. […] Afterwards, cells were exposed to DMEM/F12 supplemented with 0.01 mg/mL of transferrin, […] of insulin, 100 nM cortisol, and 0.2 nM 3,3′,5-Triiodo-L-thyronine for additional 12 days. HMCL-7304 cells were differentiated in presence of SKMC differentiation medium (PromoCell) for 4-5 days before glucose uptake was performed. […] After the preincubation, the cells were starved for 2 hours prior to 30 minutes of 100 nM insulin stimulation at 37 degrees. […] The cells were then washed with PBS, harvested in 300 uL of M-PER lysis buffer (ThermoFisher), and then added to scintillation vials containing 4.75 mL of scintillation fluid (Perk Elmer). Radioactive counts were determined with a scintillation counter (Model ID: Beckman LS6500). Excess samples were subjected to BCA assay for protein quantification and normalization of radioactive counts. All samples were represented as fold change compared to the unstimulated (no insulin) condition.

iPSC lines = assay: HMGCR inhibition in iPSC lines, RNA-seq differential expression; type: cell-based, human; conditions: 1 uM, 12 h
Method: Previous efforts have validated predictive networks through similar approaches.
For the expression residuals used for the co-expression and predictive network analyses, 2 analysis streams were adopted: one where there was use of all samples without adjusting for patient ID (AS) and one where there was an averaging of residuals per patient (ApP). Differentially expressed genes were determined using a linear model, as implemented in the 1mFit function from the limma package v3.18.13 in R. Statistical significance was assessed using a cut-off of 0.05 on FDR adjusted p-values.
iPSCs from 6 IS and 6 IR individuals were maintained in feeder-free conditions using mTesr1 (Stem Cell technologies, Inc) supplemented with 1 mM L-Glutamine, 1 mM Penicillin-Streptomycin, 0.1 μ/ml Fungizone.) on 5% matrigel coated 6-well TC plates. For passaging, cells were washed once with PBS and treated with pre-warmed 1 mM EDTA (Sigma), incubated at 37 degrees for 1-5 minutes, and resuspended in fresh mTesr1 medium 2 μM Thiazovivin (Millipore). After 12 hours incubation in Thiazovivin, medium was changed daily with fresh mTesr1. […] Cells were washed once in PBS and harvested for RNA extraction using PureLInk RNA mini kit (Thermo Fisher Scientific). Total RNA was quantified using a Nanodrop (Thermo Scientific). RNA samples with a A260/280 ratio <1.8 or >2.3 were excluded from further processing and the RNA was sequenced using the Illumina HiSeq 2500 system.

| SMILES | cell proliferation in SKMCs (human SKMCs (HMCL-7304)) | preadipocyte growth (human SGBS preadipocytes) | differentiation efficiency (adipogenesis, Oil Red O absorbance at 500 nm) (SGBS cells) | insulin mediated glucose uptake [1] | number of DE genes, treated vs untreated samples (iPSC lines; IR iPSC group only) | number of DE genes, treated vs untreated samples (iPSC lines; IS iPSC group only) | number of DE genes, treated vs untreated samples (iPSC lines; all iPSC lines (6 IR, 6 IS)) |
| --- | --- | --- | --- | --- | --- | --- | --- |
| NCCCC(O)(P(=O)(O)O)P(=O)(O)O [alendronate] | only a significant effect on glucose uptake | only HMGCR inhibition demonstrates a detectable decrease | – | – | – | – | – |
| CN(C/C=C/C#CC(C)(C)C)Cc1cccc2ccccc12 [terbinafine] | only a significant effect on glucose uptake | only HMGCR inhibition demonstrates a detectable decrease | only HMGCR inhibition demonstrates a detectable decrease | decrease insulin mediated glucose uptake | – | – | – |
| CC(C)c1c(C(=O)Nc2ccccc2)c(-c2ccccc2)c(-c2ccc(F)cc2)n1CC[C@@H](O)C[C@@H](O)CC(=O)O [atorvastatin] | inhibits; also recorded: affected | detectable decrease | – | – | 785 | 711 | 3205 |
